Earlier results in US6365176B1, “Nutritional supplement for patients with type 2 diabetes mellitus for lipodystrophy” (Functional Foods, Inc., priority 2000, dated 2002).

Tests used:
[1] = in vivo
[2] = doses between 200 and 1,000 μg daily

| Compound | glycemic index (GI) [1] | fasting plasma glucose concentrations [2] |
| --- | --- | --- |
| O=C(CO)[C@@H](O)[C@H](O)[C@H](O)CO [Fructose] | 32 |  |
| chromium picolinate [Chromium as picolinate] |  | beneficial effect |
